For one assay, the target named is T1, rat M1 Y106A receptor (Rattus norvegicus, UniProt P08482, Y106A).
T1 construct: expressed in transfected cells
T1 sequence (P08482 1-460 Y106A): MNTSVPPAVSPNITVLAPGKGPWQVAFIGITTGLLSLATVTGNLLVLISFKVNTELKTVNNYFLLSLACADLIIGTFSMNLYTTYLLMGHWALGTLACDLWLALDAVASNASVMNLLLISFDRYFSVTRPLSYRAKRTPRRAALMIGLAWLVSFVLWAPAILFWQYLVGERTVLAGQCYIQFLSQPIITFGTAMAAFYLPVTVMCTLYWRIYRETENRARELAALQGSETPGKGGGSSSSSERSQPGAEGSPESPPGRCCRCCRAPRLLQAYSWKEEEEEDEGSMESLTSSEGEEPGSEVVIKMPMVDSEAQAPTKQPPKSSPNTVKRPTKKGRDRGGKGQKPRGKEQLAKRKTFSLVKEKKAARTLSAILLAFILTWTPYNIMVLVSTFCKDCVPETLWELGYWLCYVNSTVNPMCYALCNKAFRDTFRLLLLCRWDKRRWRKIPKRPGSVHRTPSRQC
Description: ^3H-NMS radioligand binding, Y106A. Particulars: for Shift: Ki Y106A divided by Ki wild-type. Here is the method: Briefly, cell homogenates are prepared from cells transiently or stably expressing wild type or mutant receptors. For transiently transfected cells, HEK cells are transfected with receptor of interest and cells harvested 48 hours post transfection. Cells expressing the receptor, stably or transiently, are harvested using phosphate buffered saline containing 5 mM EDTA, cells centrifuged at low speed and pellet re-suspended in binding buffer. Cell suspension is polytroned and centrifuged at 15,000×g. The pellet is resuspended in binding buffer and centrifugation repeated two more times. The washed cell homogenates are used for the competition binding assays. Competition binding assays are carried out in the presence of fixed amount of cell homogenate, fixed concentration of radioactively labeled orthosteric or allosteric ligand and varying concentrations of the cal under study using appropriate buffer. Incubations are carried out at room temperature for 2 hours. Incubations are terminated by filtration onto GF/B filters using Packard cell harvester followed by 3 washes with ice-cold buffer. Radioactivity retained on the filters is quantitated using Packard Top Count using Microscint 20 scintillation fluid. […] The membranes prepared above are incubated with a labeled ligand in 25 mM sodium phosphate, 5 mM magnesium chloride, 0.01% BSA two hours at room temperature. The binding reaction is stopped by rapid filtration onto GF/B filters. […] The pKd values (pKd=−log Kd) of the labeled ligand are calculated.
Radioligand binding assays were carried out in 25 mM sodium phosphate, 5 mM magnesium chloride, 0.01% BSA. Incubations were for two hours at room temperature, and reactions were stopped by rapid filtration onto GF/B filters.

The next assay addresses T2, rat M1 L102A receptor (Rattus norvegicus, UniProt P08482, L102A).
T2 construct: expressed in transfected cells; host or cells: NIH-3T3
T2 sequence (P08482 1-460 L102A): T1 sequence (P08482 1-460 Y106A) with L102A, A106Y
Description: R-SAT functional assay, L102A mutant. It counts as cell-based. The conditions noted are these: for Eff (%) / Shift / EC50: Table 3; for Eff (%): maximum response, normalized; for Shift: EC50 L102A divided by EC50 wild-type. Here is the method: Cells are co-transfected for 18 h with DMEM containing 0.08 micrograms/ml of an expression vector for the expression of the mutant receptor and 0.3 micrograms/ml pSI-Bgal (Promega, Madison Wis.), and 0.5% v/v Polyfect (Qiagen, Valencia Calif.), as recommended by the manufacturer. On day three, the medium is replaced with DMEM containing 1% PSG, 0.5% calf serum, 2% cyto-sf3 (Kemp Biotechnologies, Frederick, Md.), and varying concentrations of the compounds to be tested. Cells are grown in a humidified atmosphere with 5% ambient CO2 for 5 days. The media is removed from the plates, and beta-galactosidase activity is measured by the addition of o-nitrophenyl -d-galactopyranoside in phosphate-buffered saline with 5% Nonidet P-40. […] The following equation is fitted to the data using GraphPad Prism software (San Diego, Calif.):
NIH-3T3 cells were grown in 96-well tissue culture plates to 70 to 80% confluence in Dulbecco's modified essential media (DMEM) supplemented with 100 units/ml penicillin, 100 micrograms/ml streptomycin, 0.3 mg/ml L-glutamine (1% PSG, GIBCO) and 10% calf serum (Sigma-Aldrich). Cells were transfected for 18 h with DMEM containing 0.08 micrograms/ml receptor DNA and 0.3 micrograms/ml pSI-Bgal (Promega, Madison Wis.), 0.5% v/v Polyfect (Qiagen, Valencia Calif.). Medium was replaced with DMEM containing 1% PSG, 0.5% calf serum, 2% cyto-sf3 (Kemp Biotechnologies, Frederick, Md.), and varying concentrations of ligand. […] Cells were grown in a humidified atmosphere with 5% ambient CO2 for 5 days. Medium was removed from the plates, and beta-galactosidase activity was measured by the addition of o-nitrophenyl -d-galactopyranoside in phosphate-buffered saline with 5% Nonidet P-40.

These results are taken from patent US20090209525A1, “ENABLING METHODS TO IDENTIFY ALLOSTERIC MODULATORS OF RECEPTOR ACTIVITY” (priority 2006, published 2009).

Each structure is given as a SMILES string. Changes are numbered by the printed parent chain.

A word on the IC50: it is the concentration that gives 50% inhibition. A word on the EC50: it is the concentration giving half of the maximal effect. High values mean weaker potency, low ones greater potency.

`CCCCC1CCN(CCCC(=O)c2ccccc2C)CC1` [AC-42, 4-n-butyl-1-[4-(2-methylphenyl)-4-oxo-1-butyl] piperidine hydrogen chloride]: at rat M1 Y106A receptor, the IC50 is 5.01 µM and the Shift came to 1. In addition, the “Eff (%)” value on rat M1 L102A receptor (L102A) amounted to 6 ± 0%.
On to `CCCCC1CCN(CCCN2C(=O)COc3cc(F)ccc32)CC1` [AC-260584, 4-[3-(4-Butyl-piperidin-1-yl)-propyl]-7-fluoro-4H-benzo [1,4]oxazin-3-one], for which, at rat M1 Y106A receptor, the IC50 was 3.16 µM and the Shift came to 3. At rat M1 L102A receptor (R-SAT, L102A), the “decrease in potency relative to wild-type” value was found to be 30 fold. For the same molecule, the Shift at rat M1 L102A receptor was determined as 30. In addition, on rat M1 L102A receptor (L102A), the response was half-maximal at 0.501 µM (EC50) and the “Eff (%)” value was found to be 37 ± 7%.
On to `Clc1ccc2c(c1)N=C(N1CCNCC1)c1ccccc1N2` [NDMC, 8-chloro-11-(1-piperazinyl)-5H-dibenzo [b,e] [1,4] diazepine], for which, on rat M1 Y106A receptor, the IC50 is 0.0501 µM and the Shift amounted to 0.3. In addition, at rat M1 L102A receptor, the Shift is on record as greater than 100. On rat M1 L102A receptor (L102A), the EC50 was greater than 10 µM and the “Eff (%)” value was >35 ± — %.
